Biological target: Ras-related C3 botulinum toxin substrate 1 (Mus musculus, UniProt P63001)
Assay: analog inhibition of wildtype Rac1 nucleotide loading – biochemical, additional analogs, multiplex bead flow cytometry, SAR follow-up (AID 2040)
[1] = inactive by the depositor's call

Structure (SMILES)	EC50 [1] [µM]	EC50 [µM]
COc1ccc(-c2c(C#N)c(N)n(S(C)(=O)=O)c2C(=O)c2ccccc2)cc1Br [2-azanyl-4-(3-bromanyl-4-methoxy-phenyl)-1-methylsulfonyl-5-(phenylcarbonyl)pyrrole-3-carbonitrile]	30	
COc1ccc(S(=O)(=O)n2c(N)c(C#N)c(-c3ccccc3)c2C(=O)c2ccc(Br)cc2)cc1	30	
O=C(C#Cc1ccccc1)c1cccnc1 [3-phenyl-1-pyridin-3-ylprop-2-yn-1-one]	30	
CSc1ccc(/C=C2/C(C)=C(CC(=O)O)c3cc(F)ccc32)cc1 [{6-Fluoro-2-methyl-3-[1-(4-methylsulfanyl-phenyl)-meth-(E)-ylidene]-3H-inden-1-yl}-acetic acid]	54.7	
O=C1Nc2cccc(Br)c2/C1=C1/Cc2ccccc2C1=O	12.1	
O=C1Nc2c(Cl)cccc2C1=C1Nc2ccccc2C1=O		30
O=C(C#Cc1ccccc1)c1ccc([N+](=O)[O-])cc1 [1-(4-nitrophenyl)-3-phenyl-2-propyn-1-one]	30	
CCCCS(=O)(=O)n1c(N)c(C#N)c(-c2cc(OC)c(OC)c(OC)c2)c1C(=O)c1ccccc1 [2-amino-5-benzoyl-1-butylsulfonyl-4-(3,4,5-trimethoxyphenyl)-3-pyrrolecarbonitrile]	30	
COc1cc(-c2c(C#N)c(N)n(S(=O)(=O)c3c(C(C)C)cc(C(C)C)cc3C(C)C)c2C(=O)c2ccccc2)cc(OC)c1OC [2-azanyl-5-(phenylcarbonyl)-4-(3,4,5-trimethoxyphenyl)-1-[2,4,6-tri(propan-2-yl)phenyl]sulfonyl-pyrrole-3-carbonitrile]	75.3	
O=C1N=c2c(Cl)cccc2=C1c1[nH]c2ccccc2c1NO [7-chloro-3-[3-(hydroxyamino)-1H-indol-2-yl]-2-indolone]		30
O=C(C#Cc1ccccc1)c1ccc(F)cc1 [UNM-0000306059]	30	
O=C1NC(=S)N/C1=C1\C(=O)Nc2ccccc21 [(3Z)-3-(5-oxo-2-sulfanylideneimidazolidin-4-ylidene)-1H-indol-2-one]		1.67
O=C1Nc2ccc(Br)cc2C1=C1Nc2ccccc2C1=O		16.1
O=C1N=c2ccc(Br)cc2=C1c1[nH]c2ccccc2c1NO [5-bromanyl-3-[3-(oxidanylamino)-1H-indol-2-yl]indol-2-one]		30
O=C(C#Cc1ccccc1)c1ccccc1[N+](=O)[O-] [UNM-0000306038]	30	
O=C(C#Cc1ccccc1)c1ccc(Cl)cc1 [UNM-0000306055]	30	
O=C1N=c2c(Br)cccc2=C1c1[nH]c2ccccc2c1NO [7-bromanyl-3-[3-(oxidanylamino)-1H-indol-2-yl]indol-2-one]		30
N#Cc1c(-c2ccc(Cl)cc2)c(C(=O)c2ccccc2)n(S(=O)(=O)c2ccc([N+](=O)[O-])cc2)c1N [UNM-0000305780]	30	
O=C1Nc2ccccc2/C1=C1/Nc2ccccc2C1=O [2-[(3Z)-2-oxo-2,3-dihydro-1H-indol-3-ylidene]-2,3-dihydro-1H-indol-3-one]		30

Structure (SMILES)	EC50 [1] [µM]	EC50 [µM]
O=C1N=c2ccccc2=C1c1[nH]c2ccccc2c1NO [3-[3-(hydroxyamino)-1H-indol-2-yl]-2-indolone]		30
C[C@@H](C(=O)O)c1cccc(Oc2ccccc2)c1 [calcium;2-(3-phenoxyphenyl)propanoic acid;hydrate]		30
CC(=O)Oc1ccccc1C(=O)O [2-(acetyloxy)benzoic acid]	30	
O=C1Nc2c(Br)cccc2C1=C1Nc2ccccc2C1=O		30
COC(=O)c1ccc(C(=O)C#Cc2ccccc2)cc1 [4-(1-oxo-3-phenylprop-2-ynyl)benzoic acid methyl ester]	30	
CC1=C(CC(=O)O)c2cc(F)ccc2/C1=C/c1ccc([S+](C)[O-])cc1 (stereo not drawn) [UNM-0000306136]	30	
O=C1Nc2ccccc2/C1=C1/Cc2ccccc2C1=O [UNM-0000305763]	30	
O=C(C#Cc1ccccc1)c1ccc(OC(F)(F)F)cc1	30	
COc1ccc(C(=O)C#Cc2ccccc2)cc1 [1-(4-methoxyphenyl)-3-phenyl-2-propyn-1-one]	30	
O=[N+]([O-])c1ccc(C#Cc2ccccc2)cc1	30	
O=C1N=c2c(F)cccc2=C1c1[nH]c2ccccc2c1NO [7-fluoro-3-[3-(hydroxyamino)-1H-indol-2-yl]-2-indolone]		30
COc1ccc2cc(CC(=O)O)ccc2c1 [2-(6-methoxynaphthalen-2-yl)ethanoic acid]	30	
COc1ccc(S(=O)(=O)n2c(N)c(C#N)c(-c3cc(Br)c(OC)c(OC)c3)c2C(=O)c2ccccc2)cc1 [UNM-0000305782]	30	
O=C1Nc2c(Br)cccc2/C1=C1/Cc2ccccc2C1=O [(3E)-7-bromo-3-(3-oxo-1H-inden-2-ylidene)-1H-indol-2-one]	30	
O=C1Nc2c(F)cccc2C1=C1Nc2ccccc2C1=O		34.6
COc1ccc(S(=O)(=O)n2c(N)c(C#N)c(-c3cncc(Br)c3)c2C(=O)c2ccccc2)cc1 [2-amino-5-benzoyl-4-(5-bromo-3-pyridinyl)-1-(4-methoxyphenyl)sulfonyl-3-pyrrolecarbonitrile]	9.84	
O=C(C#Cc1ccccc1)c1ccccc1 [UNM-0000306039]	30	
O=C1NC(=O)/C(=C2/C(=O)Nc3ccccc32)N1		2.64
N#Cc1ccc(C(=O)C#Cc2ccccc2)cc1 [4-(3-phenylprop-2-ynoyl)benzenecarbonitrile]	30	

From BindingDB's records for doi:10.7270/Q2W37TR5 (Nmmlsc, 2009)
